# Reference: PMC11224403, “Des-acyl ghrelin reduces alcohol intake and alcohol-induced reward in rodents” (Translational Psychiatry, 2024)
# Legend:
# [1] = test system: cFOS in NAc and VTA; assay: cFOS-positive cells in NAc and VTA; type: in vivo, male rats; details: acute DAG, 90 min
# Method: We therefore explore if DAG influenced the activity of neurons (cFOS) in NAc and VTA. Naïve male rats were treated acutely with vehicle (n = 3) or DAG (n = 3) and were 90 min later perfused. Brains were collected, and stored in 4% paraformaldehyde overnight, and in 25% sucrose until sectioning. Brains were sectioned coronally in 40-μm sections using a microtome. Brain slices of NAc (AP +1.8 mm) and VTA (AP −5.2 mm) were stained for cFOS-DAB, as described elsewhere, visualized by a Nikon light microscope (Nikon Eclipse 90i, Tokyo, Japan). Pictures were captured with a Nikon DS-Fi1 camera (Nikon, Tokyo, Japan). Cell bodies positive for cFOS immunoreactivity (dark brown) were quantified using ImageJ-FIJI (National Institutes of Health, Bethesda, MD), and counted manually by a blinded experimenter.
# The obtained data are normally distributed and with equal variance. The data from drinking experiments were analyzed by unpaired t-test or repeated two-way ANOVA. A two-tailed unpaired t-test analyzed the ELISA, ex vivo HPLC-EC, and cFOS data. […] A one-way ANOVA with Bonferroni post hoc tests and unpaired t-test analyzed the locomotor activity and CPP data, respectively. The in vivo microdialysis experiments were evaluated by a repeated two-way ANOVA followed by the Bonferroni post hoc test. […] Data were analyzed with GraphPad Prism version 10.0.2 (GraphPad Software, La Jolla, CA, USA).
# [2] = test system: male and female rats; assay: Locomotor activity test, DAG per se, rats; type: in vivo, Rcc Han Wistar rats; details: DAG 0.5, 1.0 or 2.0 mg/kg, 60 min recording, n = 5–6 per group
# Description: Male and female Rcc Han Wistar rats (8–12 weeks old at arrival; Envigo, Horst, Netherlands) were used for the alcohol drinking and locomotor activity experiments as they drink alcohol to intoxicating levels. For in vivo microdialysis studies male Wistar rats (Charles River, Calco, Italy) were used as they display robust dopamine levels in NAc shell after alcohol injection. […] All rodents were allowed to habituate to the animal facility at least one week before they entered an experiment. During housing (20 °C with 50% humidity) the rodents had free access to water and standard chow (Teklad Rodent Diet; Envigo, Madison, WI, USA). […] The sample sizes of each experiment were based on previous experience in which statistical significance has been detected. The person who conducted the experiments, and analyzed the collected data was aware of the treatment allocation. […]
# Locomotor activity tests were conducted in ventilated and dim-lit (4 lux) open field arenas (420 × 420 × 200 mm; Med Associates Inc; Georgia, Vermont, USA). Infra-red beams detected distance traveled, number of jumps, vertical counts, average velocity, stereotypic counts, number of inner zone entries, and time spent in the inner/outer zones of each animal. […]
# The obtained data are normally distributed and with equal variance. The data from drinking experiments were analyzed by unpaired t-test or repeated two-way ANOVA. […]
# [3] = test system: dopamine in NAc shell; assay: In vivo microdialysis, dopamine release in NAc shell; parameters: species or system Wistar rats; details: n = 8 per group
# Description: Male and female Rcc Han Wistar rats (8–12 weeks old at arrival; Envigo, Horst, Netherlands) were used for the alcohol drinking and locomotor activity experiments as they drink alcohol to intoxicating levels. For in vivo microdialysis studies male Wistar rats (Charles River, Calco, Italy) were used as they display robust dopamine levels in NAc shell after alcohol injection. […] All rodents were allowed to habituate to the animal facility at least one week before they entered an experiment. […] The sample sizes of each experiment were based on previous experience in which statistical significance has been detected. The person who conducted the experiments, and analyzed the collected data was aware of the treatment allocation. Only preset exclusion criteria were used when analyzing the data obtained in attempts to exclude confounding factors in analyzing data. In the alcohol drinking experiments leaking bottles and low alcohol consumption (<3.0 g/kg for males; <3.5 g/kg for females) were preset exclusion criteria. The preset exclusion criterion in the ex vivo HPLC-EC, ELISA, and recombinant cell line experiments was contamination of the sample. Misplaced probes, technical difficulties, and damages to the surgery area were preset exclusion criteria for the in vivo microdialysis experiment. Intra-cage male aggression was the preset exclusion criterion for the locomotor activity and CPP experiments. To minimize tentative confounding factors, the order of treatments was stratified, with treatments being mixed for each animal cage and for each apparatus used as well as balancing the alcohol intake between future treatment groups. […]
# The data from drinking experiments were analyzed by unpaired t-test or repeated two-way ANOVA. A two-tailed unpaired t-test analyzed the ELISA, ex vivo HPLC-EC, and cFOS data. […] A one-way ANOVA with Bonferroni post hoc tests and unpaired t-test analyzed the locomotor activity and CPP data, respectively. The in vivo microdialysis experiments were evaluated by a repeated two-way ANOVA followed by the Bonferroni post hoc test.
# [4] = test system: CB1 receptor; assay: Aquoscreen receptor activity assay, CB1; type: cell-based, human; details: 50 µM DAG in results (8.3 µM in methods); luminescence, triplicates
# [5] = test system: µ-opioid receptor; type: cell-based, human; details: 50 µM DAG in results (8.3 µM in methods); luminescence, triplicates
# [6] = test system: feeding and ghrelin-induced responses; details: cited from earlier work
# Description: DAG can be found in the plasma after ghrelin is secreted from the gastrointestinal tract and subsequently deacetylated in the serum. […] Based on these findings and given that ghrelin has a prominent role in mediating alcohol-related responses, we hypothesize that DAG decreases such effects in rodents.
substance,measurement,setting,value
"des-acyl ghrelin (GSSFLSPEHQRVQQRKESKKPPAKLQPR; Ghrelin-28 non-acylated; UniProt Q9UBU3 24-51, looked up) [DAG, non-octanoylated form of ghrelin; purchased from Tocris (printed Tocrise Bioscience), dissolved in 0.9% NaCl]","cFOS-positive cells, VTA","[1]; male rats, data not shown",Neither did DAG treatment influence cFOS-positive cells in the VTA
same,"number of cFOS-positive cells, NAc shell","[1]; naïve male rats, n = 3 per group, vehicle 237 ± 13, t4 = 0.60, P = 0.6372",219 ± 33
same,"locomotor activity, DAG per se",[2]; female rats,did not influence locomotor activity
same,"locomotor activity, DAG per se",[2]; male rats,did not influence locomotor activity
same,"dopamine in NAc shell, DAG per se",[3]; DAG 1 mg/kg without alcohol,did not affect dopamine in the NAc shell per se
same,alcohol-induced dopamine release in NAc shell (effect of DAG),"[3]; male rats (methods), DAG 1 mg/kg plus alcohol vs vehicle-alcohol","suppressed this enhancement (40 min P = 0.0396, 80 min P < 0.0001, 160 min P = 0.0400, 200 min P = 0.0010, 220 min P = 0.0458)"
same,activation of CB1,[4],no activation
same,activation of µ-opioid receptor,[5],no activation
same,"effects of ghrelin on feeding, gastric emptying, body temperature, glucose and lipid metabolism",[6]; ref [30–34],"blocks the effects of ghrelin on feeding, gastric emptying, body temperature, and glucose and lipid metabolism"
same,food intake,[6]; ref [32],decrease food intake
